Source: ChEMBL document CHEMBL5257019, “An Overview of Severe Acute Respiratory Syndrome-Coronavirus (SARS-CoV) 3CL Protease Inhibitors: Peptidomimetics and Small Molecule Chemotherapy” (J Med Chem, 2016)

Experiments:
[1] = target: T1, Replicase polyprotein 1ab (Severe acute respiratory syndrome coronavirus 2, UniProt P0DTD1); test: Inhibition of SARS-CoV-2 3CL protease using Dabcyl-KTSAVLQSGFRKME-Edans as substrate assessed as inhibition constant by flurogenic assay
[2] = target: Replicase polyprotein 1ab (Severe acute respiratory syndrome coronavirus 2) (UniProt P0DTD1); test: Inhibition of SARS-CoV-2 3CL protease at 100 uM relative to control
[3] = target: T1, Replicase polyprotein 1ab; test: Inhibition of SARS-CoV-2 3CL protease using 2-aminobenzoyl-SVTLQSG-Tyr(NO2)-R as substrate
[4] = Inhibition of SARS-CoV 3CL protease using 2-aminobenzoyl-SVTLQSG-Tyr(NO2)-R as substrate; design: species or system Severe acute respiratory syndrome-related coronavirus
[5] = target: Replicase polyprotein 1ab (Severe acute respiratory syndrome coronavirus 2) (UniProt P0DTD1); test: Inhibition of SARS-CoV-2 3CL protease assessed as ratio of Kinact/Ki
[6] = target: T1, Replicase polyprotein 1ab; test: Inhibition of N terminal his tagged SARS-CoV-2 3CL protease by FRET assay
Cytochrome P450 2D6 = Cytochrome P450 2D6 (Homo sapiens, UniProt P10635); test: Inhibition of CYP2D6 (unknown origin); type: ADME
Cytochrome P450 3A4 = Cytochrome P450 3A4 (Homo sapiens, UniProt P08684); test: Inhibition of CYP3A4 (unknown origin); type: ADME
Cytochrome P450 2C9 = Cytochrome P450 2C9 (Homo sapiens, UniProt P11712); test: Inhibition of CYP2C9 (unknown origin); type: ADME
Cytochrome P450 1A2 = target: T2, Cytochrome P450 1A2 (Homo sapiens, UniProt P05177); test: Inhibition of CYP1A2 (unknown origin); type: ADME
T2 sequence (P05177 whole entry): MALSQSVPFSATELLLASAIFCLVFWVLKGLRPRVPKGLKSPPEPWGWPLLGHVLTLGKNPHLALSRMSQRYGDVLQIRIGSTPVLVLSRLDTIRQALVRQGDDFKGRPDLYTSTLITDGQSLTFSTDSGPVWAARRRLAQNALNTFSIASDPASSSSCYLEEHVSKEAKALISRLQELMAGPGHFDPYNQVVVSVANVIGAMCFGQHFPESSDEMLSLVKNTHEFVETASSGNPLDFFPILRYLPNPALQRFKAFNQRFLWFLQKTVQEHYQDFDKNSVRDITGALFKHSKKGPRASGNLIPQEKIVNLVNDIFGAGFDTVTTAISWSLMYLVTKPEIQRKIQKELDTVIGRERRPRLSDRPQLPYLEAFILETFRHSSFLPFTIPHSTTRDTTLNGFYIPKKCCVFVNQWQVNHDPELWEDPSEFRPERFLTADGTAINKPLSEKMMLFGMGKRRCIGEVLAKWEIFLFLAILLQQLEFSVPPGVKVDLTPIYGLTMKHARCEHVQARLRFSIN

[7] = Plasma protein binding in human assessed as unbound fraction; type: ADME
[8] = Plasma protein binding in rat assessed as unbound fraction; type: ADME
[9] = target: T1, Replicase polyprotein 1ab; test: Inhibition of SARS-CoV-2 3CL protease using Dabcyl-Leu-Ala-Gln-Ala-Val-Arg-Ser-Ser-Ser-Arg-Edans as substrate
[10] = target: T1, Replicase polyprotein 1ab; test: Inhibition of SARS-CoV-2 3CL protease by FRET assay

Cytochrome P450 2D6, sequence (P10635 whole entry): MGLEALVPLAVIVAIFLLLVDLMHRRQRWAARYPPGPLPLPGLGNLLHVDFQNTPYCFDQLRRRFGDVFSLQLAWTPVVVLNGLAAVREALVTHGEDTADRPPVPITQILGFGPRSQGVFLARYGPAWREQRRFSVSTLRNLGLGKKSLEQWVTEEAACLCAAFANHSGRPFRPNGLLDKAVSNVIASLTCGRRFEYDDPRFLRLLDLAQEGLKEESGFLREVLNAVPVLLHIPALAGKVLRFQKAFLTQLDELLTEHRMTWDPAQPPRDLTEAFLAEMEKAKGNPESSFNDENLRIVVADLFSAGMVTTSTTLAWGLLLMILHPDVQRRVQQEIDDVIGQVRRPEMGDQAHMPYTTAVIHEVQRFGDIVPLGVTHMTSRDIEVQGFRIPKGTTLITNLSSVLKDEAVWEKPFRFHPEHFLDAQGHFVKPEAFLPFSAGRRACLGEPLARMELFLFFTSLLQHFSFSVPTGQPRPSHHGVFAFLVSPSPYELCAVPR
Cytochrome P450 2C9, sequence (P11712 whole entry): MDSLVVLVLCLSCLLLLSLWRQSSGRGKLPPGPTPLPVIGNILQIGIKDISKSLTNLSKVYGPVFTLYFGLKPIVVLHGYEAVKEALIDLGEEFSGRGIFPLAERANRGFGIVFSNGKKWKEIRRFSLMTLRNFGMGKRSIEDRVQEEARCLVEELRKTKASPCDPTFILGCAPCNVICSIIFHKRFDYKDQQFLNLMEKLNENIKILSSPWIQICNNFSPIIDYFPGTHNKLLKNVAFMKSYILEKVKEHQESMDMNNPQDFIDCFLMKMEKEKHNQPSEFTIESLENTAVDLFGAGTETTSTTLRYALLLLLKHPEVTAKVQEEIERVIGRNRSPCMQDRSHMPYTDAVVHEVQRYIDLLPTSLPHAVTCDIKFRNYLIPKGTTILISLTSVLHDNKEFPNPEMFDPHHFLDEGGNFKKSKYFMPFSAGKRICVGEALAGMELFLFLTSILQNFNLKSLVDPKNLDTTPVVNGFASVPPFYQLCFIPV
Cytochrome P450 3A4, sequence (P08684 whole entry): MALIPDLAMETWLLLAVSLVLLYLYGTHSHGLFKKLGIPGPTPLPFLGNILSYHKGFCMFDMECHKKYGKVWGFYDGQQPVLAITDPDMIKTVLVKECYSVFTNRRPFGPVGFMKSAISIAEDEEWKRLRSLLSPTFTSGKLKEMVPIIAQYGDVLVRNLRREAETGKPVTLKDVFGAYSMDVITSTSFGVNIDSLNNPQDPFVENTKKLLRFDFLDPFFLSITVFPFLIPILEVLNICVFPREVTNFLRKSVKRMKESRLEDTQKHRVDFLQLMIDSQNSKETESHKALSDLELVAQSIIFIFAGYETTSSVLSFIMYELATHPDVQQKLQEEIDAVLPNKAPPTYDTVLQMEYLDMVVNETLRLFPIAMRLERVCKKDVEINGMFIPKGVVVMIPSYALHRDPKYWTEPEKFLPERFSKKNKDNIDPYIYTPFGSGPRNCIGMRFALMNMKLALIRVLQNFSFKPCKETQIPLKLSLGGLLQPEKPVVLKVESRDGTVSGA

O=C(On1nnc2ccccc21)c1ccc2[nH]ccc2c1
Ki [1]: 0.0075 µM

CC(=O)N[C@H](C(=O)N[C@H](C(=O)N[C@@H](CC(C)C)C(=O)N[C@@H](C[C@@H]1CCNC1=O)C(=O)c1cccs1)[C@@H](C)O)C(C)C
inhibition [2]: 23%

COC(=O)c1cc2c(O)cc(C(F)(F)F)cc2o1
IC50 [3]: 4.3 µM

OCC1C(COCc2ccccc2)CC1n1cnc2c(Cl)ncnc21 (stereo not drawn)
IC50 [4]: 14.5 µM

CCOC(=O)[C@@H]1OC1C(=O)N(CCC(N)=O)NC(=O)[C@H](Cc1ccccc1)NC(=O)[C@H](CC(C)C)NC(=O)OCc1ccccc1 (stereo partly drawn)
Ratio [5]: 1900 M/s

O=C(Oc1cncc(Cl)c1)c1cc2ccccc2[nH]1
IC50 [6]: 0.065 µM

Cn1ccc(CN(C(=O)Cn2nnc3ccccc32)c2ccc(NC(=O)C3CC3)cc2)c1
IC50 (Cytochrome P450 2D6): 8.4 µM
IC50 (Cytochrome P450 3A4): 4.6 µM
IC50 (Cytochrome P450 2C9): 7.2 µM
IC50 (Cytochrome P450 1A2): 7.7 µM
fraction unbound [7]: 0.048
fraction unbound [8]: 0.106

O=C(CSc1nc(C2CCCCC2)nc2ccccc12)NCc1ccco1
IC50 [3]: 18.2 µM

O=C(O)c1ccc(/N=C/c2c(O)ccc3c2C2CCCCC2O3)cc1 (stereo not drawn)
EC50 [9]: 23 µM

O=c1c(OC[C@H]2O[C@@H](O)[C@H](O)[C@@H](O)[C@H]2O)c(-c2ccc(O)c(O)c2)oc2cc(O)cc(O)c12
IC50 [10]: 42.8 µM

CC(C)(C)NC(=O)C(c1cccnc1)N(C(=O)c1ccco1)c1ccc(C(C)(C)C)cc1 (stereo not drawn)
IC50 (Cytochrome P450 2D6): > 30 µM
IC50 (Cytochrome P450 2C9): 9.1 µM
IC50 (Cytochrome P450 1A2): > 30 µM
fraction unbound [7]: 0.033
fraction unbound [8]: 0.026

O=C(Oc1cncc(Cl)c1)c1cccs1
IC50 [6]: 0.5 µM

Cc1cc2cc(CN(CCc3ccccc3C)C(=O)NCc3ccccc3)c(=O)[nH]c2cc1C
IC50 [3]: 17.2 µM

CC(=O)N[C@H](C(=O)N[C@H](C(=O)N[C@@H](CC(C)C)C(=O)N[C@@H](Cc1ccccc1)C(=O)Cn1[nH]c(=O)c2ccccc2c1=O)[C@@H](C)OCc1ccccc1)C(C)C
inhibition [2]: 72%
